According to patent US12411143B2, “CD146 and uses thereof as a biomarker and as a therapeutic target in the diagnosis and treatment of fibrosis” (ASSISTANCE PUBLIQUE HÔPITAUX DE MARSEILLE, priority 2018, dated 2025):
Entries after “also recorded” stand apart in the source; their conditions may differ.

Key:
[1] = system: Human cardiac fibroblasts (HCFs); experiment: Cell proliferation of human cardiac fibroblasts (BrdU assay); format: cell-based
Procedure: (§1) Human cardiac fibroblasts (HCFs) (PromoCell) are grown in Fibroblast Growth Medium 3 Supplement Pack (PromoCell) in an environment at 37° C. with controlled atmosphere. The HCFs are grown between passages 3 and 7.
(§2) To perform the stimulations, the fibroblasts are seeded at a density of 30 000 cells/cm^2 in complete culture medium. After 24 hours of adhesion, the cell culture medium is replaced with medium not containing growth factor (minimal medium) for 4 hours.
This medium is then replaced with minimal medium supplemented with 25, 50, 75 or 100 ng/mL of CD146s or with 2.5, 5 or 10 ng/mL of TGF-β for the proliferation study.
Cell proliferation is determined using a proliferation kit (BrdU Assay, Roche). An anti-BrdU antibody diluted 1/100 in its diluent solution is incubated for 90 minutes at 37° C. After removal and rinsing of excess antibody, a second antibody directed specifically against anti-BrdU and coupled to peroxidase is incubated for 30 minutes at room temperature and then removed. Detection is performed by the addition of 100 μL of enzyme substrate. […] Staining intensity, proportional to BrdU incorporation, is read on a spectrophotometer at 450 nm. The results are calculated by subtracting the background noise observed in a culture well containing no cells but having received the same amount of BrdU. Percentage of proliferation is then calculated for each condition. […]

[2] = system: Human cardiac fibroblasts (HCFs); experiment: Myofibroblast marker expression in human cardiac fibroblasts (RT-PCR, western blot, immunofluorescence); format: cell-based
Procedure: as §1, §2
Total mRNA is extracted using a purification kit (RNeasy Mini, Qiagen) then eluted in 30 μL of RNase-free water. The amount of RNA is measured at 260 nm using a spectrophotometer (NanoDrop). The RNA is then converted to cDNA using 200 ng of RNA and according to the same protocol as the tissue RNA. The gene expression study is performed by real-time PCR from 10 ng of cDNA (Table 4).
The cells are lysed at 4° C. in a buffer composed of 10 mMTris-HCl (pH 8), 1 mM EDTA, 150 mMNaCl, 10% NP40, containing a protease inhibitor cocktail (Pierce, Thermo Scientific). The cell lysate obtained is centrifuged at 4° C. and 15000 g for 10 minutes. The supernatant containing solubilized proteins is collected and the amount of proteins determined using a calibration curve of bovine serum albumin (BSA) prepared from a 1 mg/mL BSA solution diluted in the lysis buffer used during sample preparation.
The samples are then used in western blot experiments. To that end, an aliquot containing 30 μg of proteins is taken up in 4× Laemmli buffer containing a reducing agent (Invitrogen) and then heated for 10 minutes at 75° C. before being deposited on an electrophoresis gel (NuPAGE 4-12% Bis-Tris Gel, Invitrogen). After migration of the samples, the proteins are dry-transferred to a nitrocellulose membrane (iBlot 2, Invitrogen). The membrane is blocked for 45 minutes with a Tris buffer containing 0.1% Tween 20 (TBS-T) and 4% BSA. The primary antibody (Table 5) diluted in TBS-T is hybridized for 12 hours at 4° C. and then rinsed for 3×10 minutes with TBS-T. The HRP-coupled secondary antibody (TBS-T) is hybridized for 1 hour. After rinsing, HRP activity is detected using a chemiluminescent substrate (ECL, Pierce). An antibody directed against a normalizing protein (β-tubulin), the expression of which is not modified by the experimental conditions, makes it possible to normalize the quantification and then to express the results semi-quantitatively (% control). Emitted light is captured with a camera (G:BOX). The proteins of interest are visualized as black bands on a white background. The signal thus obtained is quantified by densitometry (Image Lab Software version 4.1) (Table 5).
The cells are fixed for 5 minutes in 70° ethanol at 4° C. and then rinsed with PBS. After 1 hour of blocking in a PBS solution containing 5% BSA, the primary antibody (anti-α-SMA, Dako-0851) diluted 1/50 and then the secondary antibody (anti-mouse antibody) coupled to a fluorescent molecule (Alexa Fluor 488) are incubated for 1.5 hours. Rinses with PBS are performed between each step. The cells are mounted in an aqueous medium containing a nuclear stain (ProLongMountant with DAPI, Invitrogen) before being observed under a fluorescence microscope.
Modulation of α-SMA expression was examined in response to stimulation of HCFs by 50 ng/mL of CD146 for 48 hours.

sCD146: recombinant human soluble form of CD146 corresponding to the shed sCD146, obtained from Biocytex
cell proliferation of cardiac fibroblasts ([1]; 25, 50, 75 or 100 ng/mL of CD146s): significant, dose-dependent increase in cell proliferation | amount giving the maximum pro-proliferative effect ([1]; HCFs): 50 ng/mL | α-SMA network (indirect immunofluorescence) ([2]; 50 ng/mL): establishment of a smooth muscle actin network | CD146 expression ([2]; 50 ng/mL of CD146s, first results n=2): 2 fold | α-SMA protein expression level (western blot) ([2]; 50 ng/mL, 48 hours): 2.5 fold | α-SMA RNA expression level (overexpression) ([2]; 50 ng/mL, 48 hours, n=4): 2.5 fold | TGF-β expression at the RNA level ([2]; HCFs stimulated by CD146s, preliminary): increase in TGF-β expression; also recorded: able to increase TGF-β expression | expression of RNAs encoding fibronectin and type I collagen ([2]; semiquantitative RT-PCR, comparable to TGF-β stimulation): increase in synthesis of fibronectin and of type I collagen
